Data published in patent US20250263441A1 (Metanovas Biotech Inc., priority 2024, published 2025).
“And” between values parts separate entries of the source, which are not always exact repeats. Equal values may be shown once.

Experiments:
Format in all cases: cell-based
[1] = system: Staphylococcus aureus (ATCC: 25913); assay: Inhibitory effect of AMP-33 on Staphylococcus aureus (viability, OD 630 nm); settings: for Viability of Staphylococcus aureus: 24 hours, repeated experiments
Description: (1) Staphylococcus aureus and Escherichia coli were inoculated into LB liquid medium and cultured overnight under aerobic conditions at 37° C. and […] on a shaker.
(2) 200 μL of LB liquid culture medium and a predetermined concentration of peptide AMP-33 were added to a 96-deep-well plate. Then, 10 μL of the Staphylococcus aureus/Escherichia coli solution was inoculated (mixed well before inoculation).
(§1) (3) After incubating at […] for 24 hours on a shaking table at 37° C., the turbidity of the bacterial solution was observed. A volume of 100 μL of the solution was taken, and the OD at 630 nm was measured using an enzyme-linked immunosorbent assay (ELISA) reader (after multiple blows and mixing).
(§2) [formula] • OD Measurement: OD value of the test peptide. • ODneg: OD value with no bacterial inoculation, containing only […] medium. • ODpos: OD value with bacterial inoculation and without inhibitors.

[2] = system: HaCat (human immortalized epidermal cells) cells; assay: Cytotoxic assay (CCK-8) in HaCat cells; settings: 60 hours
Description: Preparation of Cell Suspension: HaCat (human immortalized epidermal cells) cells were counted and inoculated into 96-well plates. 100 μL of cell suspension was added to each well, corresponding to a density of 5×10^4 cells per well, with three replicates for each sample. The cells were cultured in a 37° C. incubator for 4 hours until they were attached to the plate. Peptides from the examples, as well as FK13 and HPA3NT3, were then added at concentrations of 80 μg/mL, 32 μg/mL, and 8 μg/mL. The cells were incubated at 37° C. for 60 hours. Afterward, 10 μL of CCK-8 solution was added, and the cells were cultured for an additional 2 hours. The absorbance of the peptides at 450 nm was measured using a dual-wavelength detector, with a detection wavelength of 450-490 nm and a reference wavelength of 600-650 nm.

Escherichia coli = assay: Minimum inhibitory concentration on Escherichia coli (liquid culture); settings: 37° C., 24 to 48 hours
Description: (§3) Primary screening of liquid culture: the peptides in Examples 1 to 2 were dissolved in pure water to a concentration of 100 μg/mL. Using a micropipette, 10 μL of the peptides were added to a new 96-well plate in order from left to right, starting from the second compartment. Positive and negative controls were established for use. The 96-well plates were arranged vertically, and the peptide concentrations in the control groups were the same as those of the antimicrobial peptides. The control groups included: pure water and bacteria, antimicrobial peptide FK13 and bacteria, antimicrobial peptide HPA3NT3 and bacteria, and ciprofloxacin and bacteria. An aseptic medium was used.
(§4) If a 96-deep-well plate was used to culture bacteria, an additional 100 μL of sterile medium was added to all wells.
E. coli was inoculated in LB medium with normal oxygen concentration (21%) for 48 hours. E. coli clones were picked and incubated in LB medium at 37° C. with normal oxygen concentration (21%) for an additional 48 hours. The bacterial concentration was measured and diluted to 107 CFU/mL with culture medium for use.
(§5) The prepared fresh bacterial suspension was diluted to 105 CFU/mL and added to the 96-well plate with 90 μL of the bacterial suspension per well. The plate was incubated at 37° C. with a normal oxygen concentration for 24 to 48 hours (Propionibacterium acnes was cultured anaerobically at 37° C. for 24 to 48 hours in an anaerobic bag). The absorbance at 630 nm was measured using a microplate reader, and the degree of turbidity was observed by the naked eye.
(§6) (iv) Repetition of Operations: The Operations in (iii) were Repeated Twice, and the Decision to Perform a Third Repetition was Based on the Reproducibility of the Experiment.

[3] = system: Propionibacterium acnes (ATCC: 6919); assay: Inhibitory effect of AMP-33 on Propionibacterium acnes (viability, OD 630 nm); set-up: Viability of Propionibacterium acnes: unit: %; settings: for Viability of Propionibacterium acnes: 48 hours, repeated experiments
Description: (1) Propionibacterium acnes was inoculated into Wilkins Chalgren liquid medium and cultured overnight under anaerobic conditions at 37° C. (Labiophy HL-B fully automated anaerobic workstation).
(2) 200 μL of the Wilkins Chalgren liquid culture medium and a predetermined concentration of the peptide AMP-33 were added to a 96-deep-well plate. Then, 10 μL of Propionibacterium acnes was inoculated (mix well before inoculation).
(3) After 48 hours of cultivation under anaerobic conditions at 37° C., the turbidity of the bacterial solution was observed. Then, 100 μL of the solution was taken, and the OD at 630 nm was measured using the enzyme-linked immunosorbent assay (ELISA) reading plate (after multiple blows and mixing).
as §2

[4] = system: Mouse macrophage RAW264.7 cells; assay: NO concentration after treatment of LPS-stimulated RAW264.7 cells; settings: LPS 10 ng/ml, 24 hours, replicate experiments
Description: (1) Mouse macrophage RAW264.7 cells were cultured in DMEM supplemented with 10% fetal bovine serum (FBS) and 1% penicillin and streptomycin (P/S) at 37° C. in a 5% CO2 incubator.
(2) 5×10^4 mouse-derived RAW264.7 macrophages were placed in 12-well cell culture plates and cultured for 24 hours. Then, 20 μL of PBS (negative control), Dexamethasone (positive control), and the test peptide were added to the wells for incubation for 2 hours. Afterward, 10 ng/ml of lipopolysaccharide (LPS) was mixed with RAW264.7 cells and incubated for 24 hours.
(3) The supernatant was collected, and NO and IL-6/IL-1ß expression levels were measured using a commercial kit.

[5] = system: Candida albicans (ATCC: 14053); assay: Inhibitory effect of AMP-33 on Candida albicans (viability, OD 630 nm); settings: 8 μg/mL, 28 hours; repeated experiments
Description: (1) Candida albicans was inoculated into YM liquid medium and cultured overnight under aerobic conditions at 28° C. and […] on a shaker.
(2) 200 μL of YM liquid culture medium and a predetermined concentration of peptide AMP-33 were added to a 96-deep-well plate. Then, 10 μL of the Candida albicans solution was inoculated (mixed well before inoculation).
as §1, with “28” for “24”, “28°” for “37°”
as §2

Staphylococcus aureus = assay: Minimum inhibitory concentration on Staphylococcus aureus (liquid culture); settings: 37° C., 24 to 48 hours
Description: as §3, §4
Staphylococcus aureus was inoculated in LB medium with a normal oxygen concentration (21%) for 48 hours. Staphylococcus aureus clones were picked and incubated in LB medium at 37° C. with a normal oxygen concentration (21%) for an additional 48 hours. The bacterial concentration was measured and diluted to 107 CFU/mL with culture medium for use.
as §5, §6

Substance: Example 2: LSKWLKKLGKLLAG (designated as AMP33)
- Viability of Staphylococcus aureus ([1]; 1 μg/mL): 117.78 and 116.41 and 116.45
- Viability of Staphylococcus aureus ([1]; 2 μg/mL): 121.60 and 104.84 and 102.77
- Viability of Staphylococcus aureus ([1]; 4 μg/mL): 88.75 and 109.74 and 132.77
- Viability of Staphylococcus aureus ([1]; 8 μg/mL): 98.53 and 99.19 and 97.03
- inhibition of Staphylococcus aureus ([1]; 50 ppm): over 99%
- Maximum cytotoxicity-free concentration [2]: 80 µg/mL
- Minimum inhibitory concentration on Escherichia coli (Escherichia coli): 50 mg/L
- Viability of Propionibacterium acnes ([3]; 1 μg/mL): 94.82 and 113.75 and 94.03
- Viability of Propionibacterium acnes ([3]; 2 μg/mL): 79.37 and 65.48 and 68.87
- inhibition of Propionibacterium acnes ([3]; 4 ppm): over 90%
- NO concentration ([4]; AMP-33 2 μg/mL): 12.70 µM and 13.54 µM and 13.37 µM
- NO concentration ([4]; AMP-33 4 μg/mL): 12.35 µM and 12.14 µM and 11.10 µM
- NO concentration ([4]; AMP-33 8 μg/mL): 10.26 µM and 10.75 µM and 11.10 µM
- NO concentration ([4]; AMP-33 25 μg/mL): 2.82 µM and 2.89 µM and 3.83 µM
- NO concentration ([4]; AMP-33 50 μg/mL): 1.27 µM and 1.33 µM and 1.60 µM
- NO concentration ([4]; AMP-33 100 μg/mL): 1.60 µM and 1.13 µM and 1.54 µM
- Viability of Candida albicans [5]: 53.84 and 70.73 and 66.17
- Minimum inhibitory concentration on Staphylococcus aureus (Staphylococcus aureus): 12.5 mg/L
